Experimental data from US20050180956A1, “SSAO enzyme substrates for vasorelaxation, and methods of use thereof” (priority 2004, published 2005).
Where two headings read alike, the source gives them in different places.

Experiments:
[1] = molecular target: T1, SSAO activity in homogenized human LIMA (Homo sapiens, UniProt Q16853); assay: Radiometric SSAO assay (14C-benzylamine), homogenized LIMA; assay type: biochemical; settings: homogenate preincubated 20 min, 37° C.; n=25
T1 construct: Blood vessel segments were homogenized in Sorensen's Na^+/K^+-phosphate buffered solution; from tissue; host or cells: human left internal mammary artery (LIMA), supernatant of homogenate
T1 sequence (Q16853 1-763): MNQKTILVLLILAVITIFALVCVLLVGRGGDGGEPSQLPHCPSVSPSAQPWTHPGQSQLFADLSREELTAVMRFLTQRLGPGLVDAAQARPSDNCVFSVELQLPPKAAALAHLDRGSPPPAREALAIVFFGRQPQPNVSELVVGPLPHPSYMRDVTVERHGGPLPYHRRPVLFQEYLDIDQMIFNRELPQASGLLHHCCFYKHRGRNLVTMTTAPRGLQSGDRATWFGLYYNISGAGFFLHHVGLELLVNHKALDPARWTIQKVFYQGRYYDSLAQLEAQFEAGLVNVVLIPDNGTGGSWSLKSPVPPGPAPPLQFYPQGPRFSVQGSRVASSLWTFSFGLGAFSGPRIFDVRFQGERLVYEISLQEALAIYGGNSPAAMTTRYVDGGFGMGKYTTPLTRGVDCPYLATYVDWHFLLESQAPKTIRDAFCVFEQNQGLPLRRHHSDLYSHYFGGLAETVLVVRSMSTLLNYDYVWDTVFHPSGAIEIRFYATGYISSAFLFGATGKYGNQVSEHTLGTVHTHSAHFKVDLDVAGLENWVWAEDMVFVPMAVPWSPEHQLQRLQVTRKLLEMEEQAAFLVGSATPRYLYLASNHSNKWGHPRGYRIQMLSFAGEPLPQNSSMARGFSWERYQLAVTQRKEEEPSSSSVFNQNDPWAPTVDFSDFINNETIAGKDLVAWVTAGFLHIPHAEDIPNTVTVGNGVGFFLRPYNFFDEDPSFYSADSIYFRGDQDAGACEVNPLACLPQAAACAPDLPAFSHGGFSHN

[2] = molecular target: T2, SSAO activity in homogenized human RA (Homo sapiens, UniProt Q16853); assay: Radiometric SSAO assay (14C-benzylamine), homogenized RA; assay type: biochemical; settings: homogenate preincubated 20 min, 37° C.; n=10
T2 construct: Blood vessel segments were homogenized in Sorensen's Na^+/K^+-phosphate buffered solution; from tissue; host or cells: human radial artery (RA), supernatant of homogenate
T2 sequence (Q16853 1-763): T1 sequence (Q16853 1-763)

[3] = molecular target: T3, SSAO activity in homogenized human RSV (Homo sapiens, UniProt Q16853); assay: Radiometric SSAO assay (14C-benzylamine), homogenized RSV; assay type: biochemical; settings: homogenate preincubated 20 min, 37° C.; n=5
T3 sequence (Q16853 1-763): T1 sequence (Q16853 1-763)

[4] = molecular target: T4, SSAO in human saphenous vein (Homo sapiens, UniProt Q16853); settings: read-out: IC50 of SSAO inhibition in human saphenous vein, literature; cited from earlier work
T4 sequence (Q16853 1-763): T1 sequence (Q16853 1-763)

[5] = test system: human left internal mammary artery (LIMA); assay: Vascular ring physiology, isolated human left internal mammary artery rings; settings: for response in HI K+-precontracted LIMA, % of HI K+ tension (contraction): n=9,3,6; for EC50: Homo sapiens; for % Response, contraction (C), LIMA / % Response, relaxation (R), LIMA: NE-precontracted (1 μM) LIMA, 10 min exposure to 1 mmol/L, percentage change of NE-precontraction tension; for effect of pretreatment on MA-induced relaxation: L-NAME 200 μmol/L and/or INDO 100 μmol/L
[6] = molecular target: homogenized rat aortic SSAO activity (Rattus norvegicus, UniProt O08590); settings: read-out: Km for homogenized rat aortic SSAO activity; cited from earlier work
human radial artery (RA) = assay: Vascular ring physiology, isolated human radial artery rings
cGMP level in human LIMA = assay: cGMP ELISA assay in LIMA segments; settings: NE-precontracted LIMA, MA 1 mmol/L, 30-40 min, control 0.128 ± 0.034
humans = settings: cited from earlier work
[7] = molecular target: SSAO of human cerebral microvessels (Homo sapiens, UniProt Q16853); settings: read-out: Km, human cerebral microvessels; cited from earlier work
[8] = molecular target: SSAO of human umbilical artery (Homo sapiens, UniProt Q16853); settings: read-out: Km, human umbilical artery; cited from earlier work
[9] = test system: human left internal mammary artery (LIMA)
[10] = read-out: Apparent EC50, contraction (C), LIMA
[11] = read-out: Apparent EC50, relaxation (R), LIMA
[12] = NE-precontracted LIMA, repeated methylamine exposure, n=5

homogenized rat aortic SSAO activity, sequence (O08590 whole entry): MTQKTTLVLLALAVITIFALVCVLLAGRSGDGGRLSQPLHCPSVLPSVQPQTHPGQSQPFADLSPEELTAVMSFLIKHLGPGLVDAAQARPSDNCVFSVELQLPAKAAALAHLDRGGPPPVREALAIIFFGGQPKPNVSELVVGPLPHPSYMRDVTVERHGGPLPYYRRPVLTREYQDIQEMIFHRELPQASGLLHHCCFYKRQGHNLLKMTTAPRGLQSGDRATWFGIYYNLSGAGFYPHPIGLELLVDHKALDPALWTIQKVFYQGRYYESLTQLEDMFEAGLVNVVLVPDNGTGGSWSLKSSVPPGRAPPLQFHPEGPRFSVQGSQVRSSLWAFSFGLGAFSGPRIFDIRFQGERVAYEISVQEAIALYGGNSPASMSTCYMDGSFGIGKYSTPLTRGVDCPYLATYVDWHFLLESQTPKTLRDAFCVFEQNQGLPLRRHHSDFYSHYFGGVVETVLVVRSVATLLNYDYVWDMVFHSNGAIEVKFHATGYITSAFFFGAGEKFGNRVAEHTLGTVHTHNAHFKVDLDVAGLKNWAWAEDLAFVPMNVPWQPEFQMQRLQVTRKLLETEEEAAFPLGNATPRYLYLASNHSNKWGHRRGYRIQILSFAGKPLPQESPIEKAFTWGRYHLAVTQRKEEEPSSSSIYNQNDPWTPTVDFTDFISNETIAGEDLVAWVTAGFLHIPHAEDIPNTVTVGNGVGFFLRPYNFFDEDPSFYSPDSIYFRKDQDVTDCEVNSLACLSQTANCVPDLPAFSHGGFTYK

In the case of `NNC(N)=O` [semicarbazide], the IC50 [1] is reported as 16.7 ± 19.5 µM, the IC50 [2] is reported as 21.2 ± 11.2 µM and the IC50 [3] is reported as 14.7 µM. The IC50 [4] was 500 µM, the “mean % reversal of methylamine-induced relaxation” value ([5]; NE-precontracted LIMA, within 10 min of addition of 1 mmol/L semicarbazide, n=2) was 63.0±15.8% and the “effect of pretreatment on methylamine-induced relaxation in LIMA” value ([5]; semicarbazide pretreatment 1 mmol/L, 15 min, no effect on NE contraction or ACh relaxation) was “significantly reduced the methylamine-induced relaxation”.

In the case of `C=CCN` [allylamine, reference compound], the Km [6] is given as 145 µM.

For `C=O` [Formaldehyde, formaldehyde], the “response in HI K+-precontracted LIMA, % of HI K+ tension (contraction)” value (from here on “response in HI K+-precontracted LIMA, %”) ([5]; 1 mmol/L, 10 min, mean ± SE) was 12.9±2.4%, the EC50 [5, 10] was 315 µM and the EC50 [5, 11] was 315 µM. For the same compound, the “% Response, contraction (C), LIMA” value ([5]; mean ± SE) was 3.7 ± 3.7% and the “% Response, relaxation (R), LIMA” value ([5]; mean ± SE) was 37.3 ± 18.6%.

With `OO` [H2O2, hydrogen peroxide] the “response in HI K+-precontracted LIMA, %” value ([5]; 1 mmol/L, 10 min, mean ± SE) was 21.1±7.7%, the EC50 [5, 10] was 175 ± 58 µM and the EC50 [5, 11] was 162 ± 41 µM. The “% Response, contraction (C), LIMA” value ([5]; mean ± SE) was 15.8 ± 5.3% and the “% Response, relaxation (R), LIMA” value ([5]; mean ± SE) was 55.6 ± 9.0%.

With `CN` [methylamine] the EC50 (human radial artery (RA); read-out: Apparent EC50, contraction (C), RA) was 65 ± 48 µM, the EC50 (human radial artery (RA); read-out: Apparent EC50, relaxation (R), RA) was 280 ± 40 µM and the “[cGMP], LIMA, <50% relaxation subgroup” value (cGMP level in human LIMA; vessels with <50% relaxation (n=3)) was 0.067 ± 0.029 pmol/mg. For the same compound, the “[cGMP], LIMA, >50% relaxation subgroup” value (cGMP level in human LIMA; vessels with >50% relaxation (n=6)) was 0.227 ± 0.066 pmol/mg, the “[cGMP], RSV” value (cGMP level in human RSV) was 0.109 ± 0.030 pmol/mg and the “fatalities after accidental exposure” value (humans; 35 persons hospitalized 7-8 hours post-exposure to spilled purified liquid methylamine) was 6. For the same compound, the “persons with light to deep coma after accidental exposure” value (humans; of 35 people) was 10 of 35, the Km [6] was 247 µM and the Km [7] was 22 µM. For the same compound, the Km [8] was 832 µM, the “response in HI K+-precontracted LIMA, %” value ([5]; 1 mmol/L, 10 min, mean ± SE) was 1.7±3.9% and the EC50 [5, 11] was 230 ± 30 µM. For the same compound, the “ACh relaxation after prior exposure, percentage reduction in HI K+ contraction” value ([5]; LIMA n=7, ACh 1 μM after methylamine 1 mM 10 min (± SEMI 1 mM 15 min) and three PSS bath changes) was 20 ± 11%, the “HI K+ contraction after prior exposure, percentage of control norepinephrine contraction” value ([5]; LIMA n=7, HI K+ 100 mM after methylamine 1 mM 10 min (± SEMI 1 mM 15 min) and three PSS bath changes) was 102 ± 23% and the “SNP relaxation after prior exposure, percentage reduction in HI K+ contraction” value ([5]; LIMA n=7, SNP 100 μM after methylamine 1 mM 10 min (± SEMI 1 mM 15 min) and three PSS bath changes) was 90 ± 11%. The “methylamine relaxation relative to ACh-induced relaxation” value ([5]; LIMA, on average, regardless of order of addition) was greater than 2 times, the “% Response, contraction (C), LIMA” value ([5]; mean ± SE) was 0.6 ± 0.3% and the “% Response, relaxation (R), LIMA” value ([5]; mean ± SE) was 55.4 ± 3.9%. For the same compound, the “% relaxation, 3rd relaxation” value ([5]; NE-precontracted LIMA, repeated methylamine exposure, n=1) was 82.1%, the “% relaxation, 1st relaxation” value [5, 12] was 72.0±7.5% and the “% relaxation, 2nd relaxation” value [5, 12] was 60.8±12.6%. For the same compound, the “% reduction of NE-contraction, methylamine post-NE” value ([5]; NE-precontracted LIMA, 1 mmol/L, 10 min, n=9, mean ± SE) was 61±5%, the “% Relaxation, LIMA, <50% relaxation subgroup” value ([5]; NE-precontracted LIMA, MA 1 mmol/L, 30-40 min, vessels with <50% relaxation (n=3)) was 34.1 ± 7.1% and the “% Relaxation, LIMA, >50% relaxation subgroup” value ([5]; NE-precontracted LIMA, MA 1 mmol/L, 30-40 min, vessels with >50% relaxation (n=6)) was 87.8 ± 5.0%. For the same compound, the “Apparent EC50, contraction (C), LIMA” value ([5]; cumulative concentrations 1-1000 μM, uncontracted and NE-precontracted vessels pooled, mean ± SE) was “not observed” and the “% reduction of NE-contraction, methylamine pre-NE” value ([5]; unstimulated LIMA exposed to 1 mmol/L, 10 min, before NE, n=5, mean ± SE) was 53±7%.

In the case of `COc1ccc2c(c1)c(CC(=O)O)c(C)n2C(=O)c1ccc(Cl)cc1` [INDO, indomethacin], the “effect of pretreatment on MA-induced relaxation” value ([5]; NE-precontracted LIMA, 20 min) is reported as “neither INDO alone (100 μmol/L; 20 min) nor L-NAME+INDO pretreatment affected the MA-induced relaxation”.

In the case of `COC(=O)[C@@H](N)CCCNC(=N)N[N+](=O)[O-]` [L-NAME, N^ω-nitro-L-arginine methyl ester], the “effect of pretreatment on ACh-induced relaxation” value ([5]; L-NAME 200 μmol/L, 20 min, subset of LIMA rings with relatively strong ACh relaxation) is reported as “significantly inhibited the ACh-induced relaxation” and the “effect of pretreatment on MA-induced relaxation” value ([5]; NE-precontracted LIMA, 20 min) is reported as “had no effect on MA-induced relaxation”.

With `CC(=O)OCC[N+](C)(C)C` [ACh, acetylcholine] the “mean relaxation half time (t1/2), NE-precontracted LIMA” value [9] was 1.07 ± 0.122 min, the “ACh-induced relaxation, ACh added after MA (post-MA ACh)” value ([5]; NE-precontracted LIMA, ACh 1 μmol/L, n=20, mean ± SE) was 14±6% and the “ACh-induced relaxation, ACh added before MA (pre-MA ACh)” value ([5]; NE-precontracted LIMA, ACh 1 μmol/L, n=21, mean ± SE) was 25±6%.
